{"source": "patent US9445590B2", "about": "“Fungicidal composition comprising a pyridylethylbenzamide derivative and a compound capable of inhibiting the transport of electrons of the respiratory chain in phytopathogenic fungal organisms” (BAYER INTELLECTUAL PROPERTY GMBH, priority 2004, dated 2016)", "key": {"Pyrenophora teres": {"test_system": "Pyrenophora teres", "assay": "Efficacy against Pyrenophora teres on barley plants (preventive spray)", "assay_type": "in vivo", "conditions": "288 h, grading 12 days after contamination", "procedure": "(§1) The active ingredients tested are prepared by potter homogenisation in a mixture of acetone/tween/water. This suspension is then diluted with water to obtain the desired active material concentration.\n(§2) Barley plants (Express variety) in starter cups, sown on a 50/50 peat soil-pozzolana substrate and grown at 12° C., are treated at the 1-leaf stage (10 cm tall) by spraying with the aqueous suspension described above. Plants, used as controls, are treated with an aqueous solution not containing the active material.\nAfter 24 hours, the plants are contaminated by spraying them with an aqueous suspension of Pyrenophora teres spores (12 000 spores per ml). The spores are collected from a 12-day-old culture. The contaminated barley plants are incubated for 24 hours at about 20° C. and at 100% relative humidity, and then for 12 days at 80% relative humidity.\nGrading (% of efficacy) is carried out 12 days after the contamination, in comparison with the control plants."}, "Alternaria brassicae [1]": {"test_system": "Alternaria brassicae", "assay": "Efficacy against Alternaria brassicae (in vitro), growth on PDA medium", "assay_type": "cell-based", "conditions": "Alternaria brassicae, 336 h, radial growth after 14 days", "procedure": "The growth of Alternaria brassicae was followed on PDA medium containing the compounds alone or in mixtures. The PDA medium is prepared by mixing 39 grams of PDA (Merck) in 1 litter of demineralised water. The medium is sterilized by autoclave 15 minutes at 121° C. The compounds are dissolved in acetone and added to the medium before pouring it in Petri dishes. After medium drying, the fungus is inoculated on the medium and allowed to growth at 19° C. The percentage of efficacy is noted after 14 days of growth (measurement of the radial growth) of the fungus in comparison with a control. […]"}, "[2]": {"test_system": "Erysiphe graminis f. sp. tritici", "assay": "Efficacy against Erysiphe graminis f. sp. tritici on wheat plants (preventive spray)", "assay_type": "in vivo", "conditions": "Blumeria graminis, grading 7 to 14 days after contamination", "procedure": "as §1\nWheat plants (Audace variety) in starter cups, sown on 50/50 peat soil-pozzolana substrate and grown at 12° C., are treated at the 1-leaf stage (10 cm tall) by spraying with the aqueous suspension described above.\n(§3) Plants, used as controls, are treated with an aqueous solution not containing the active material.\nAfter 24 hours, the plants are contaminated by dusting them with Erysiphe graminis f. sp. tritici spores, the dusting being carried out using diseased plants.\nGrading is carried out 7 to 14 days after the contamination, in comparison with the control plants.\n(§4) The formulated compounds are diluted with water to obtain the desired active material concentration.\nas §2, with “Wheat” for “Barley”, “(Audace” for “(Express”, “on” for “on a”"}, "Botrytis cinerea": {"test_system": "Botrytis cinerea", "assay": "Efficacy against Botrytis cinerea on gherkin plants (preventive spray)", "assay_type": "in vivo", "conditions": "Botrytis cinerea, grading 5 to 7 days after contamination", "procedure": "as §1\nas §2, with “Gherkin” for “Barley”, “(Petit vert de Paris” for “(Express”, “18-20°” for “12°”, “cotyledon Z11” for “1-leaf”, “stage” for “stage (10 cm tall)”\nAfter 24 hours, the plants are contaminated by depositing drops of an aqueous suspension of Botrytis cinerea spores (150,000 spores per ml) on upper surface of the leaves. The spores are collected from a 15-day-old culture and are suspended in a nutrient solution composed of: • 20 g/L of gelatine • 50 g/L of cane sugar • 2 g/L of NH4NO3 • 1 g/L of KH2PO4\nThe contaminated gherkin plants are settled for 5/7 days in a climatic room at 15-11° C. (day/night) and at 80% relative humidity. Grading is carried out 5 to 7 days after contamination, in comparison with the control plants.\nas §2, with “Gherkin” for “Barley”, “(Petit vert de Paris” for “(Express”, “18-20°” for “12°”, “cotyledon Z 11” for “1-leaf”, “stage” for “stage (10 cm tall)”\nas §4"}, "Sphaerotheca fuliginea": {"test_system": "Sphaerotheca fuliginea", "assay": "Efficacy against Sphaerotheca fuliginea on gherkin plants (preventive spray)", "assay_type": "in vivo", "conditions": "Podosphaera fuliginea, 504 h, grading 21 days after contamination", "procedure": "as §1\nas §2, with “Gherkin” for “Barley”, “(Vert petit de Paris” for “(Express”, “20° C./23°” for “12°”, “2-leaves” for “1-leaf”, “stage” for “stage (10 cm tall)”\nAfter 24 hours, the plants are contaminated by spraying them with an aqueous suspension of Sphaerotheca fuliginea spores (100 000 spores per ml). The spores are collected from a contaminated plants. The contaminated gherkin plants are incubated at about 20° C./25° C. and at 60/70% relative humidity.\nGrading (% of efficacy) is carried out 21 days after the contamination, in comparison with the control plants."}, "Alternaria brassicae [3]": {"test_system": "Alternaria brassicae", "assay": "Efficacy against Alternaria brassicae on radish plants (preventive spray)", "assay_type": "in vivo", "conditions": "Example 13, dose 4 ppm, grading 6 to 7 days after contamination", "procedure": "as §4\nRadish plants (Pernot variety) in starter cups, sown on a 50/50 peat soil-pozzolana substrate and grown at 18-20° C., are treated at the cotyledon stage by spraying with the aqueous suspension described above.\nas §3\nAfter 24 hours, the plants are contaminated by spraying them with an aqueous suspension of Alternaria brassicae spores (40,000 spores per cm^3). The spores are collected from a 12-13-day-old culture.\nThe contaminated radish plants are incubated for 6-7 days at about 18° C., under a humid atmosphere.\nGrading is carried out 6 to 7 days after the contamination, in comparison with the control plants."}}, "data": [{"smiles": "O=C(NCCc1ncc(C(F)(F)F)cc1Cl)c1ccccc1C(F)(F)F", "note": "[Compound 1, N-{2-[3-chloro-5-(trifluoromethyl)-2-pyridinyl]ethyl}-2-trifluoromethylbenzamide]", "values": [{"measurement": "Emax at 4 g/ha", "setting": "Pyrenophora teres; Example 1, dose 4 g/ha", "value": 20, "unit": "%"}, {"measurement": "Emax at 8 g/ha", "setting": "Pyrenophora teres; Example 1, dose 8 g/ha", "value": 50, "unit": "%"}, {"measurement": "Emax at 0.025 ppm", "setting": "Alternaria brassicae [1]; Example 2, dose 0.025 ppm", "value": 34, "unit": "%"}, {"measurement": "Emax at 0.05 ppm", "setting": "Alternaria brassicae [1]; Example 2, dose 0.05 ppm", "value": 45, "unit": "%"}, {"measurement": "Emax at 0.1 ppm", "setting": "Alternaria brassicae [1]; Example 2, dose 0.1 ppm", "value": 53, "unit": "%"}, {"measurement": "Emax at 0.25 ppm", "setting": "Alternaria brassicae [1]; Example 2, dose 0.25 ppm", "value": 76, "unit": "%"}, {"measurement": "Emax at 0.5 ppm", "setting": "Alternaria brassicae [1]; Example 2, dose 0.5 ppm", "value": 90, "unit": "%"}, {"measurement": "Emax at 125 ppm", "setting": "[2]; Example 4, dose 125 ppm", "value": 20, "unit": "%"}, {"measurement": "Emax at 250 g/ha", "setting": "[2]; Example 9, dose 250 g/ha, formulated compounds", "value": 50, "unit": "%"}, {"measurement": "Emax at 37 ppm", "setting": "Botrytis cinerea; Example 5, dose 37 ppm", "value": 0, "unit": "%"}, {"measurement": "Emax at 111 ppm", "setting": "Botrytis cinerea; Example 5, dose 111 ppm", "value": 60, "unit": "%"}, {"measurement": "Emax at 333 ppm", "setting": "Botrytis cinerea; Example 5, dose 333 ppm", "value": 90, "unit": "%"}, {"measurement": "Emax at 37 ppm", "setting": "Botrytis cinerea; Example 6, dose 37 ppm", "value": 0, "unit": "%"}, {"measurement": "Emax at 111 ppm", "setting": "Botrytis cinerea; Example 6, dose 111 ppm", "value": 60, "unit": "%"}, {"measurement": "Emax at 333 ppm", "setting": "Botrytis cinerea; Example 6, dose 333 ppm", "value": 100, "unit": "%"}, {"measurement": "Emax at 12 ppm", "setting": "Botrytis cinerea; Example 7, dose 12 ppm", "value": 0, "unit": "%"}, {"measurement": "Emax at 37 ppm", "setting": "Botrytis cinerea; Example 7, dose 37 ppm", "value": 40, "unit": "%"}, {"measurement": "Emax at 111 ppm", "setting": "Botrytis cinerea; Example 7, dose 111 ppm", "value": 92, "unit": "%"}, {"measurement": "Emax at 37 ppm", "setting": "Botrytis cinerea; Example 8, dose 37 ppm", "value": 3, "unit": "%"}, {"measurement": "Emax at 111 ppm", "setting": "Botrytis cinerea; Example 8, dose 111 ppm", "value": 58, "unit": "%"}, {"measurement": "Emax at 333 ppm", "setting": "Botrytis cinerea; Example 8, dose 333 ppm", "value": 75, "unit": "%"}, {"measurement": "Emax at 37 ppm", "setting": "Botrytis cinerea; Example 10, dose 37 ppm", "value": 72, "unit": "%"}, {"measurement": "Emax at 31.2 ppm", "setting": "Botrytis cinerea; Example 14, dose 31.2 ppm, formulated compounds", "value": 20, "unit": "%"}, {"measurement": "Emax at 62.5 ppm", "setting": "Botrytis cinerea; Example 14, dose 62.5 ppm, formulated compounds", "value": 40, "unit": "%"}, {"measurement": "Emax at 4 ppm", "setting": "Sphaerotheca fuliginea; Example 11, dose 4 ppm", "value": 10, "unit": "%"}, {"measurement": "Emax at 8 ppm", "setting": "Sphaerotheca fuliginea; Example 11, dose 8 ppm", "value": 15, "unit": "%"}, {"measurement": "Emax at 15 ppm", "setting": "Sphaerotheca fuliginea; Example 11, dose 15 ppm", "value": 25, "unit": "%"}, {"measurement": "Emax at 7.8 ppm", "setting": "Sphaerotheca fuliginea; Example 12, dose 7.8 ppm", "value": 10, "unit": "%"}, {"measurement": "Emax at 15.6 ppm", "setting": "Sphaerotheca fuliginea; Example 12, dose 15.6 ppm", "value": 18, "unit": "%"}, {"measurement": "Emax at 31.2 ppm", "setting": "Sphaerotheca fuliginea; Example 12, dose 31.2 ppm", "value": 86, "unit": "%"}, {"measurement": "Emax at 4 ppm", "setting": "Alternaria brassicae [3]", "value": 40, "unit": "%"}]}]}
